Results taken from PubChem BioAssay AID2060626 (Molecular Pharmacology Branch, DTP, NCI, 2025).
Several values for one entry are separate records, joined by “and”; a condition that tells them apart may be missing. Equal values may be shown once.

System: 168753-222-R-J1-PDC complex spheroid viability
Experiment: Anticancer human tumor 168753-222-R-J1-PDC patient-derived bladder carcinoma cell line growth inhibition [CLK]
Conditions: for viability, T/C: stronger effect = lower value
Method in brief: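 Patient-derived tumor cells grown as complex spheroids with HUVEC endothelial cells and mesenchymal stem cells, treated with drug combinations. Concentrations descend in half-log steps from near clinical Cmax, or from 10 microM if Cmax unknown.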

[1] = curve of first compound, second compound 0.0316 µM
[2] = curve of first compound, second compound 0.1 µM
[3] = curve of first compound, second compound 0.316 µM
[4] = curve of first compound, second compound 1 µM
[5] = curve of first compound, second compound 3.16 µM
[6] = curve of first compound, second compound 10 µM
[7] = second compound 0.0316 µM, first compound 0.0316 µM
[8] = second compound 0.0316 µM, first compound 0.1 µM
[9] = second compound 0.0316 µM, first compound 0.316 µM
[10] = second compound 0.0316 µM, first compound 1 µM
[11] = second compound 0.0316 µM, first compound 3.16 µM
[12] = second compound 0.0316 µM, first compound 10 µM
[13] = second compound 0.1 µM, first compound 0.0316 µM
[14] = second compound 0.1 µM, first compound 0.1 µM
[15] = second compound 0.1 µM, first compound 0.316 µM
[16] = second compound 0.1 µM, first compound 1 µM
[17] = second compound 0.1 µM, first compound 3.16 µM
[18] = second compound 0.1 µM, first compound 10 µM
[19] = second compound 0.316 µM, first compound 0.0316 µM
[20] = second compound 0.316 µM, first compound 0.1 µM
[21] = second compound 0.316 µM, first compound 0.316 µM
[22] = second compound 0.316 µM, first compound 1 µM
[23] = second compound 0.316 µM, first compound 3.16 µM
[24] = second compound 0.316 µM, first compound 10 µM
[25] = second compound 1 µM, first compound 0.0316 µM
[26] = second compound 1 µM, first compound 0.1 µM
[27] = second compound 1 µM, first compound 0.316 µM
[28] = second compound 1 µM, first compound 1 µM
[29] = second compound 1 µM, first compound 3.16 µM
[30] = second compound 1 µM, first compound 10 µM
[31] = second compound 3.16 µM, first compound 0.0316 µM
[32] = second compound 3.16 µM, first compound 0.1 µM
[33] = second compound 3.16 µM, first compound 0.316 µM
[34] = second compound 3.16 µM, first compound 1 µM
[35] = second compound 3.16 µM, first compound 3.16 µM
[36] = second compound 3.16 µM, first compound 10 µM
[37] = second compound 10 µM, first compound 0.0316 µM
[38] = second compound 10 µM, first compound 0.1 µM
[39] = second compound 10 µM, first compound 0.316 µM
[40] = second compound 10 µM, first compound 1 µM
[41] = second compound 10 µM, first compound 3.16 µM
[42] = second compound 10 µM, first compound 10 µM
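Note: viability measured after seven days of drug exposure.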
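Throughout, for viability, T/C: luminescence signal used as surrogate for viable cell amount; 100% = DMSO vehicle control wells.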

`COc1cccc2c1C(=O)c1c(O)c3c(c(O)c1C2=O)CC(O)(C(=O)CO)CC3OC1CC(N)C(O)C(C)O1` (stereo not given) + CNC(=O)c1ccc(Nc2nc(OC3CCCC3)c3c(-c4ccc5nc(C)oc5c4)c[nH]c3n2)c(OC)c1 gave an IC50 [1] of 0.291 µM, an IC50 [2] of 0.266 µM and an IC50 [3] of 0.141 µM. For the same compound, the IC50 [4] was < 0.0316 µM, the IC50 [5] was < 0.0316 µM and the IC50 [6] was < 0.0316 µM. For the same compound, the viability, T/C [7] was 83.8%, the viability, T/C [8] was 73.1% and the viability, T/C [9] was 50%. The viability, T/C [10] was 14.6%, the viability, T/C [11] was 13.7% and the viability, T/C [12] was 0.12%. It also gave a viability, T/C [13] of 94.5%, a viability, T/C [14] of 72.3% and a viability, T/C [15] of 49.8%. The viability, T/C [16] was 14.9%, the viability, T/C [17] was 15.6% and the viability, T/C [18] was 0.1%. It also gave a viability, T/C [19] of 71.9%, a viability, T/C [20] of 57.7% and a viability, T/C [21] of 33.1%. It also gave a viability, T/C [22] of 14.1%, a viability, T/C [23] of 8% and a viability, T/C [24] of 0.12%. It also gave a viability, T/C [25] of 30.2%, a viability, T/C [26] of 18.5% and a viability, T/C [27] of 15.2%. It also gave a viability, T/C [28] of 14.1%, a viability, T/C [29] of 6.77% and a viability, T/C [30] of 0.13%. The viability, T/C [31] was 18.4%, the viability, T/C [32] was 17.9% and the viability, T/C [33] was 13.3%. It also gave a viability, T/C [34] of 12.1%, a viability, T/C [35] of 2.89% and a viability, T/C [36] of 0.14%. The viability, T/C [37] was 16%, the viability, T/C [38] was 16% and the viability, T/C [39] was 12.1%. It also gave a viability, T/C [40] of 11.2%, a viability, T/C [41] of 0.71% and a viability, T/C [42] of 0.24%.

Compound `CC(Nc1ccc2c(c1)OCCn1cc(N3C(=O)OCC3C(F)F)nc1-2)C(N)=O` (stereo not given) + CNC(=O)c1ccc(Nc2nc(OC3CCCC3)c3c(-c4ccc5nc(C)oc5c4)c[nH]c3n2)c(OC)c1 has an IC50 [1] of 0.161 µM, an IC50 [2] of 0.133 µM and an IC50 [3] of 0.0458 µM. For the same compound, the IC50 [4] was < 0.0316 µM, the IC50 [5] was < 0.0316 µM and the IC50 [6] was < 0.0316 µM. The viability, T/C [7] was 93.1%, the viability, T/C [8] was 71% and the viability, T/C [9] was 20.2%. It also gave a viability, T/C [10] of 15.5%, a viability, T/C [11] of 13.3% and a viability, T/C [12] of 13%. For the same compound, the viability, T/C [13] was 83.7%, the viability, T/C [14] was 60.5% and the viability, T/C [15] was 18.3%. The viability, T/C [16] was 14.3%, the viability, T/C [17] was 13.5% and the viability, T/C [18] was 11.6%. For the same compound, the viability, T/C [19] was 62.5%, the viability, T/C [20] was 23.5% and the viability, T/C [21] was 15%. For the same compound, the viability, T/C [22] was 9.68%, the viability, T/C [23] was 9.36% and the viability, T/C [24] was 9.19%. The viability, T/C [25] was 24.3%, the viability, T/C [26] was 13.5% and the viability, T/C [27] was 6.89%. The viability, T/C [28] was 2.64%, the viability, T/C [29] was 1.07% and the viability, T/C [30] was 2.28%. For the same compound, the viability, T/C [31] was 14.9%, the viability, T/C [32] was 10.1% and the viability, T/C [33] was 3.74%. For the same compound, the viability, T/C [34] was 0.82%, the viability, T/C [35] was 1.82% and the viability, T/C [36] was 3.99%. It also gave a viability, T/C [37] of 12.8%, a viability, T/C [38] of 9.3% and a viability, T/C [39] of 3.4%. It also gave a viability, T/C [40] of 0.76%, a viability, T/C [41] of 0.78% and a viability, T/C [42] of 1.14%.

`CNC(=O)c1ccc(Nc2nc(OC3CCCC3)c3c(-c4ccc5nc(C)oc5c4)c[nH]c3n2)c(OC)c1` was tested, and the viability, T/C (compound 0.0316 µM) was 101% [middle of 12 runs], the viability, T/C (compound 0.1 µM) was 99.3% [middle of 12 runs] and the viability, T/C (compound 1 µM) was 45.1% [middle of 12 runs]. The viability, T/C (compound 3.16 µM) was 33.5% [middle of 12 runs], the viability, T/C (compound 10 µM) was 23.6% [middle of 12 runs] and the IC50 (compound alone, run of 08/01/2023) was 900 nM [middle of 12 runs].

For `COc1cccc2c1C(=O)c1c(O)c3c(c(O)c1C2=O)CC(O)(C(=O)CO)CC3OC1CC(N)C(O)C(C)O1` (stereo not given), the viability, T/C (compound 0.0316 µM) was 49.4% and 85.7%, the viability, T/C (compound 0.1 µM) was 38.7% and 47.7% and the viability, T/C (compound 0.316 µM) was 28.3% and 46.2%. The viability, T/C (compound 1 µM) was 7.17% and 21%, the viability, T/C (compound 3.16 µM) was 7.34% and 13.8% and the viability, T/C (compound 10 µM) was 0.22% and 0.15%. The IC50 (curve of compound) was < 0.0316 µM and 0.159 µM.

For `C=CC(=O)Nc1cc(Nc2nccc(-c3cn(C)c4ccccc34)n2)c(OC)cc1N(C)CCN(C)C`, the viability, T/C (compound 0.000949 µM) was 111% and 100%, the viability, T/C (compound 0.003 µM) was 108% and 99.8% and the viability, T/C (compound 0.00949 µM) was 97.8% and 98.2%. The viability, T/C (compound 0.03 µM) was 98% and 106%, the viability, T/C (compound 0.0949 µM) was 103% and 106% and the viability, T/C (compound 0.3 µM) was 89.4% and 103%. For the same compound, the IC50 (curve of compound) was > 0.3 µM.

With `Nc1ccn(C2OC(CO)C(O)C2(F)F)c(=O)n1` (stereo not given) the viability, T/C (compound 0.0316 µM) was 57.8% and 83.1%, the viability, T/C (compound 0.1 µM) was 24.7% and 60.2% and the viability, T/C (compound 0.316 µM) was 18% and 50.2%. For the same compound, the viability, T/C (compound 1 µM) was 23.2% and 52.5%, the viability, T/C (compound 3.16 µM) was 26.2% and 46.9% and the viability, T/C (compound 10 µM) was 21.6% and 37.8%.
